In the NIST ThermoML archive (doi:10.1016/j.jct.2018.02.018):
Numbers after ± are expanded uncertainties.

Columns and labels:
[1] = xn = mol fraction of the nth substance listed; settings: 100 kPa, Liquid; for speed of sound: Frequency=3 MHz, Single path-length method; for mass density: Vibrating tube method
[2] = refractive index (Na D-line) (dimensionless); xn = mol fraction of the nth substance listed; settings: 100 kPa, Liquid, Standard Abbe refractometry

CN(C)CCCO [3-dimethylamino-1-propanol] + C[S+](C)[O-]
Settings | mass density, [1] [kg/m3] | refractive index, [2] | speed of sound, [1] [m/s]
293.15 K, x2 = 0 | 885 ± 4 | 1.437 ± 0.006 | 1395.8 ± 1.7
293.15 K, x2 = 0.0517 | 891 ± 4 | 1.438 ± 0.006 | 1397.6 ± 1.7
293.15 K, x2 = 0.0986 | 898 ± 4 | 1.439 ± 0.006 | 1398.4 ± 1.7
293.15 K, x2 = 0.1998 | 911 ± 4 | 1.442 ± 0.006 | 1401.4 ± 1.6
293.15 K, x2 = 0.3 | 927 ± 4 | 1.444 ± 0.006 | 1405.2 ± 1.6
293.15 K, x2 = 0.3998 | 944 ± 4 | 1.447 ± 0.006 | 1411.3 ± 1.6
293.15 K, x2 = 0.5031 | 963 ± 4 | 1.451 ± 0.006 | 1418.8 ± 1.6
293.15 K, x2 = 0.5988 | 983 ± 4 | 1.455 ± 0.006 | 1428.3 ± 1.5
293.15 K, x2 = 0.6998 | 1007 ± 4 | 1.46 ± 0.006 | 1441.3 ± 1.5
293.15 K, x2 = 0.7918 | 1032 ± 4 | 1.465 ± 0.006 | 1456 ± 1.5
293.15 K, x2 = 0.899 | 1065 ± 4 | 1.472 ± 0.006 | 1478 ± 1.5
293.15 K, x2 = 0.9494 | 1082 ± 4 | 1.476 ± 0.006 | 1489.6 ± 1.5
303.15 K, x2 = 0 | 877 ± 4 | 1.433 ± 0.006 | 1358.8 ± 1.7
303.15 K, x2 = 0.0517 | 883 ± 4 | 1.434 ± 0.006 | 1360.9 ± 1.7
303.15 K, x2 = 0.0986 | 889 ± 4 | 1.435 ± 0.006 | 1361.8 ± 1.7
303.15 K, x2 = 0.1998 | 903 ± 4 | 1.437 ± 0.006 | 1365.3 ± 1.6
303.15 K, x2 = 0.3 | 918 ± 4 | 1.44 ± 0.006 | 1369.9 ± 1.6
303.15 K, x2 = 0.3998 | 935 ± 4 | 1.443 ± 0.006 | 1375.7 ± 1.6
303.15 K, x2 = 0.5031 | 954 ± 4 | 1.447 ± 0.006 | 1383.9 ± 1.6
303.15 K, x2 = 0.5988 | 974 ± 4 | 1.451 ± 0.006 | 1393.6 ± 1.5
303.15 K, x2 = 0.6998 | 998 ± 4 | 1.456 ± 0.006 | 1406.9 ± 1.5
303.15 K, x2 = 0.7918 | 1023 ± 4 | 1.46 ± 0.006 | 1421.8 ± 1.5
303.15 K, x2 = 0.899 | 1055 ± 4 | 1.467 ± 0.006 | 1444.5 ± 1.5
303.15 K, x2 = 0.9494 | 1072 ± 4 | 1.471 ± 0.006 | 1455.9 ± 1.5
313.15 K, x2 = 0 | 869 ± 4 | 1.429 ± 0.006 | 1322.1 ± 1.7
313.15 K, x2 = 0.0517 | 875 ± 4 | 1.43 ± 0.006 | 1324.4 ± 1.7
313.15 K, x2 = 0.0986 | 881 ± 4 | 1.431 ± 0.006 | 1325.4 ± 1.7
313.15 K, x2 = 0.1998 | 895 ± 4 | 1.433 ± 0.006 | 1328.9 ± 1.6
313.15 K, x2 = 0.3 | 910 ± 4 | 1.436 ± 0.006 | 1334.4 ± 1.6
313.15 K, x2 = 0.3998 | 926 ± 4 | 1.439 ± 0.006 | 1340.7 ± 1.6
313.15 K, x2 = 0.5031 | 946 ± 4 | 1.443 ± 0.006 | 1349.3 ± 1.6
313.15 K, x2 = 0.5988 | 965 ± 4 | 1.447 ± 0.006 | 1359.3 ± 1.5
313.15 K, x2 = 0.6998 | 989 ± 4 | 1.451 ± 0.006 | 1372.9 ± 1.5
313.15 K, x2 = 0.7918 | 1013 ± 4 | 1.456 ± 0.006 | 1388.1 ± 1.5
313.15 K, x2 = 0.899 | 1046 ± 4 | 1.463 ± 0.006 | 1410.9 ± 1.5
313.15 K, x2 = 0.9494 | 1062 ± 4 | 1.467 ± 0.006 | 1422.3 ± 1.5
323.15 K, x2 = 0 | 860 ± 4 | 1.425 ± 0.006 | 1285.7 ± 1.7
323.15 K, x2 = 0.0517 | 867 ± 4 | 1.426 ± 0.006 | 1288.2 ± 1.7
323.15 K, x2 = 0.0986 | 873 ± 4 | 1.427 ± 0.006 | 1289.5 ± 1.7
323.15 K, x2 = 0.1998 | 886 ± 4 | 1.429 ± 0.006 | 1293.8 ± 1.6
323.15 K, x2 = 0.3 | 901 ± 4 | 1.432 ± 0.006 | 1299.3 ± 1.6
323.15 K, x2 = 0.3998 | 918 ± 4 | 1.435 ± 0.006 | 1306.1 ± 1.6
323.15 K, x2 = 0.5031 | 937 ± 4 | 1.439 ± 0.006 | 1315.1 ± 1.6
323.15 K, x2 = 0.5988 | 956 ± 4 | 1.443 ± 0.006 | 1325.5 ± 1.5
323.15 K, x2 = 0.6998 | 980 ± 4 | 1.447 ± 0.006 | 1339.4 ± 1.5
323.15 K, x2 = 0.7918 | 1004 ± 4 | 1.452 ± 0.006 | 1354.7 ± 1.5
323.15 K, x2 = 0.899 | 1036 ± 4 | 1.459 ± 0.006 | 1377.6 ± 1.5
323.15 K, x2 = 0.9494 | 1052 ± 4 | 1.462 ± 0.006 | 1389 ± 1.5

NCc1ccccc1 [benzylamine] + C[S+](C)[O-]
Settings | mass density, [1] [kg/m3] | refractive index, [2] | speed of sound, [1] [m/s]
293.15 K, x2 = 0 | 983 ± 4 | 1.544 ± 0.006 | 1579.7 ± 1.7
293.15 K, x2 = 0.1031 | 992 ± 4 | 1.54 ± 0.006 | 1578.5 ± 1.7
293.15 K, x2 = 0.1998 | 1001 ± 4 | 1.536 ± 0.006 | 1575.9 ± 1.6
293.15 K, x2 = 0.2979 | 1011 ± 4 | 1.532 ± 0.006 | 1571.1 ± 1.6
293.15 K, x2 = 0.399 | 1021 ± 4 | 1.526 ± 0.006 | 1565.5 ± 1.6
293.15 K, x2 = 0.4991 | 1032 ± 4 | 1.52 ± 0.006 | 1558.8 ± 1.6
293.15 K, x2 = 0.5886 | 1043 ± 4 | 1.515 ± 0.006 | 1551.6 ± 1.5
293.15 K, x2 = 0.6999 | 1056 ± 4 | 1.507 ± 0.006 | 1540.9 ± 1.5
293.15 K, x2 = 0.8029 | 1070 ± 4 | 1.498 ± 0.006 | 1530 ± 1.5
293.15 K, x2 = 0.8991 | 1084 ± 4 | 1.49 ± 0.006 | 1517.7 ± 1.5
293.15 K, x2 = 0.9493 | 1092 ± 4 | 1.485 ± 0.006 | 1510.6 ± 1.5
303.15 K, x2 = 0 | 974 ± 4 | 1.539 ± 0.006 | 1540.2 ± 1.7
303.15 K, x2 = 0.1031 | 983 ± 4 | 1.535 ± 0.006 | 1539.3 ± 1.7
303.15 K, x2 = 0.1998 | 992 ± 4 | 1.531 ± 0.006 | 1536.1 ± 1.6
303.15 K, x2 = 0.2979 | 1002 ± 4 | 1.527 ± 0.006 | 1533.5 ± 1.6
303.15 K, x2 = 0.399 | 1012 ± 4 | 1.522 ± 0.006 | 1527.6 ± 1.6
303.15 K, x2 = 0.4991 | 1023 ± 4 | 1.516 ± 0.006 | 1521.6 ± 1.6
303.15 K, x2 = 0.5886 | 1033 ± 4 | 1.51 ± 0.006 | 1514.9 ± 1.5
303.15 K, x2 = 0.6999 | 1047 ± 4 | 1.502 ± 0.006 | 1504.8 ± 1.5
303.15 K, x2 = 0.8029 | 1061 ± 4 | 1.494 ± 0.006 | 1494.9 ± 1.5
303.15 K, x2 = 0.8991 | 1075 ± 4 | 1.485 ± 0.006 | 1483.3 ± 1.5
303.15 K, x2 = 0.9493 | 1082 ± 4 | 1.48 ± 0.006 | 1476.2 ± 1.5
313.15 K, x2 = 0 | 965 ± 4 | 1.534 ± 0.006 | 1500 ± 1.7
313.15 K, x2 = 0.1031 | 974 ± 4 | 1.53 ± 0.006 | 1500.2 ± 1.7
313.15 K, x2 = 0.1998 | 983 ± 4 | 1.527 ± 0.006 | 1497.6 ± 1.6
313.15 K, x2 = 0.2979 | 993 ± 4 | 1.522 ± 0.006 | 1494.6 ± 1.6
313.15 K, x2 = 0.399 | 1003 ± 4 | 1.517 ± 0.006 | 1490.3 ± 1.6
313.15 K, x2 = 0.4991 | 1014 ± 4 | 1.511 ± 0.006 | 1484.8 ± 1.6
313.15 K, x2 = 0.5886 | 1024 ± 4 | 1.505 ± 0.006 | 1478.6 ± 1.5
313.15 K, x2 = 0.6999 | 1038 ± 4 | 1.498 ± 0.006 | 1469.2 ± 1.5
313.15 K, x2 = 0.8029 | 1051 ± 4 | 1.489 ± 0.006 | 1460 ± 1.5
313.15 K, x2 = 0.8991 | 1065 ± 4 | 1.481 ± 0.006 | 1448.6 ± 1.5
313.15 K, x2 = 0.9493 | 1072 ± 4 | 1.476 ± 0.006 | 1442.2 ± 1.5
323.15 K, x2 = 0 | 957 ± 4 | 1.529 ± 0.006 | 1461.1 ± 1.7
323.15 K, x2 = 0.1031 | 966 ± 4 | 1.526 ± 0.006 | 1461.4 ± 1.7
323.15 K, x2 = 0.1998 | 974 ± 4 | 1.522 ± 0.006 | 1459.4 ± 1.6
323.15 K, x2 = 0.2979 | 984 ± 4 | 1.517 ± 0.006 | 1457.4 ± 1.6
323.15 K, x2 = 0.399 | 994 ± 4 | 1.512 ± 0.006 | 1453.3 ± 1.6
323.15 K, x2 = 0.4991 | 1005 ± 4 | 1.506 ± 0.006 | 1448.4 ± 1.6
323.15 K, x2 = 0.5886 | 1015 ± 4 | 1.501 ± 0.006 | 1442.7 ± 1.5
323.15 K, x2 = 0.6999 | 1028 ± 4 | 1.493 ± 0.006 | 1434 ± 1.5
323.15 K, x2 = 0.8029 | 1042 ± 4 | 1.485 ± 0.006 | 1425.3 ± 1.5
323.15 K, x2 = 0.8991 | 1055 ± 4 | 1.476 ± 0.006 | 1414.6 ± 1.5
323.15 K, x2 = 0.9493 | 1062 ± 4 | 1.471 ± 0.006 | 1408.5 ± 1.5
